Structures are written as SMILES. “Also recorded” adds a separate entry of the source. Like-named read-outs stand apart in the source and are kept apart here.

What all share (assay type): cell-based
Assay [1] has as its system human lung cancer cell line A549. As to the kind of experiment: cells. Particulars: Homo sapiens. On the procedure: (§1) To confirm the in vitro growth inhibitory efficacy of the samples prepared in Examples 1 to 28 against human lung cancer and colorectal cancer cell lines, the experiments were performed as follows by applying the method described in the literature (Lee S K et al ([…]) Chem Biol Interact 115:215-28). A human lung cancer cell line A549 and a colorectal cancer cell line HCT116 were acquired from the American Type Culture Collection (ATCC, Manassas, Va., USA) and used.
(§2) A549, HCT116 cells were subcultured once or twice weekly under conditions of 37° C. and 5% CO2 using Roswell Park Memorial Institute (RPMI) Medium 1640 (RPMI 1640) containing 10% heat-inactivated Fetal Bovine Serum (FBS), 100 units/mL penicillin, 100 μg/mL streptomycin, and 250 ng/mL amphotericin B. All cells were thawed from liquid nitrogen, subcultured three times or more, and then used in the experiment.
(§3) The effects of the compounds obtained in Examples 1 to 28 on cell growth were measured by a sulforhodamine B (SRB) method (Lee et al (1998) Chem Biol Interact 115: 215-28).
(§4) Specifically, the human lung cancer and colon cancer cell lines used in the present invention were subcultured in a RPMI medium containing 10% FBS, 1% PSF, and the like, 10 μl of a sample dissolved in 10% DMSO and 190 μl (5×10^4 cells/ml) of the cell suspension were placed in each well of a 96-well plate. 190 μl of the cell suspension was placed in at least 16 wells, cultured for 30 minutes, and used as a negative control (zero-day control) before the experiment. The cultured cells were fixed with 10% trichloroacetic acid (TCA) and then stained with an SRB solution, the staining solution was dissolved with 10 mM Tris-base, and absorbance was measured at 515 nm. Using the cell culture in 10% DMSO as a control, cell viability according to the treatment with each test sample was measured using the following Equation 1. % Cell viability=(OD(sample)−OD(0-day))/(OD(10% DMSO)−OD(0-day))×100 [Equation 1]
(§5) When the control in which the sample was not treated was defined as 100%, the value of the sample treatment group was shown as a percentage with respect to the control, and each test sample treatment was determined by the mean value±SEM of the duplicate or triplicate test. The IC50 value is the concentration of the test sample for 50% viability.

In assay [2] the test system is colorectal cancer cell line HCT116. Put plainly: cells. The conditions noted are these: Homo sapiens. As to the method: as §1, §2, §3, §4, §5
The test system of assay [3] is human lung cancer and colorectal cancer cell lines. As to the kind of experiment: In vitro growth inhibition (SRB), summary over both cell lines. Particulars: compared with control compound etoposide. On the procedure:
as §1, §2, §3, §4, §5

Where [4] appears, read: A549, read-out: A549-LC50, Table 2, SRB, concentration for 50% viability.
The mark [5] stands for this setting: HCT-116, read-out: HCT116-LC50, Table 2, SRB, concentration for 50% viability.

In the case of `O=C(NCC[Se][Se]CCNC(=O)/C(Cc1ccc(O)c(Br)c1)=N/O)/C(Cc1ccc(O)c(Br)c1)=N/O` [SSM-1, (2E,2′E)-N,N′-(diselanediylbis(ethane-2,1-diyl))bis(3-(3-bromo-4-hydroxyphenyl)-2-(hydroxyimino)propanamide)], the CC50 is 30 nM in assay [1] (setting [4]) and 10 nM in assay [2] (setting [5]). For the same compound, the “cancer cell growth inhibitory activity compared to etoposide” value in assay [3] is given as “higher inhibitory activity than a control compound etoposide; also recorded: excellent cancer cell growth inhibitory potential even compared to etoposide”.

`O=C(NCC[Se][Se]CCNC(=O)/C(Cc1ccc(O)c(Cl)c1)=N/O)/C(Cc1ccc(O)c(Cl)c1)=N/O` [SSM-2, (2E,2′E)-N,N′-(diselanediylbis(ethane-2,1-diyl))bis(3-(3-chloro-4-hydroxyphenyl)-2-(hydroxyimino)propanamide)]: the CC50 in assay [1] (setting [4]) came to 50 nM; in assay [2] (setting [5]) it was 20 nM. In assay [3], the “cancer cell growth inhibitory activity compared to etoposide” value is given as “higher inhibitory activity than a control compound etoposide; also recorded: excellent cancer cell growth inhibitory potential even compared to etoposide”.

With `O=C(NCC[Se][Se]CCNC(=O)/C(Cc1ccc(O)c(F)c1)=N/O)/C(Cc1ccc(O)c(F)c1)=N/O` [SSM-3, (2E,2′E)-N,N′-(diselanediylbis(ethane-2,1-diyl))bis(3-(3-fluoro-4-hydroxyphenyl)-2-(hydroxyimino)propanamide)], the CC50 in assay [1] (setting [4]) is 60 nM; in assay [2] (setting [5]) it was 50 nM. Moreover, in assay [3], the “cancer cell growth inhibitory activity compared to etoposide” value was “higher inhibitory activity than a control compound etoposide; also recorded: excellent cancer cell growth inhibitory potential even compared to etoposide”.

In the case of `O=C(NCC[Se][Se]CCNC(=O)/C(Cc1ccccc1)=N/O)/C(Cc1ccccc1)=N/O` [SSM-4, (2E,2′E)-N,N′-(diselanediylbis(ethane-2,1-diyl))bis(2-(hydroxyimino)-3-phenylpropanamide)], the CC50 in assay [1] (A549, read-out: A549-LC50) is 80 nM; in assay [2] (HCT-116, read-out: HCT116-LC50) it was 90 nM. The “cancer cell growth inhibitory activity compared to etoposide” value in assay [3] is recorded as “higher inhibitory activity than a control compound etoposide; also recorded: excellent cancer cell growth inhibitory potential even compared to etoposide”.

For the compound `CCOc1ccc(C/C(=N\O)C(=O)NCC[Se][Se]CCNC(=O)/C(Cc2ccc(OCC)cc2)=N/O)cc1` [SSM-10, (2E,2′E)-N,N′-(diselanediylbis(ethane-2,1-diyl))bis(3-(4-ethoxyphenyl)-2-(hydroxyimino)propanamide)], the CC50 was determined as 50 nM in assay [1] (setting [4]) and 70 nM in assay [2] (setting [5]). For the same compound, the “cancer cell growth inhibitory activity compared to etoposide” value in assay [3] was “higher inhibitory activity than a control compound etoposide; also recorded: excellent cancer cell growth inhibitory potential even compared to etoposide”.

With `O=C(NCC[Se][Se]CCNC(=O)/C(Cc1ccc([N+](=O)[O-])cc1)=N/O)/C(Cc1ccc([N+](=O)[O-])cc1)=N/O` [SSM-12, (2E,2′E)-N,N′-(diselanediylbis(ethane-2,1-diyl))bis(2-(hydroxyimino)-3-(4-nitrophenyl)propanamide)], the CC50 in assay [1] (A549, read-out: A549-LC50) was 90 nM; in assay [2] (HCT-116, read-out: HCT116-LC50), 90 nM. In addition, in assay [3], the “cancer cell growth inhibitory activity compared to etoposide” value is given as “higher inhibitory activity than a control compound etoposide; also recorded: excellent cancer cell growth inhibitory potential even compared to etoposide”.

(Values after US11629123B2, “Selenopsammaplin A and derivative thereof, preparation method therefor, and composition for preventing and treating cancer, containing same as active ingredients” (priority 2017, dated 2023).)
